Results reported in patent US9782412B2, “Preventive and/or therapeutic agent of immune disease” (TAIHO PHARMACEUTICAL CO., LTD., priority 2015, dated 2017).
Like-named read-outs stand apart in the source and are kept apart here.

Key:
[1] = system: TNP-IgE mice; assay: Mouse antigen-induced dermatitis model; assay type: in vivo; conditions: 30 minutes before allergen, 2 hours after antigen
Text: Type I allergy models accompanied by a skin symptom (a dermatitis model) were produced, with TNP-IgE mice (CLEA Japan, Inc.). The mice are genetically modified BALB/c mice that constantly produce an IgE specific to hapten TNP (trinitrophenol) which is widely used as an allergen (antigen). It is possible to induce an allergic reaction in the mice, only by administering an allergen, without carrying out an immunization. […] An average value of thickening values of both ears was obtained as a value of an individual (provided that a previous value before the allergen application was 0 mm).
Ear swelling control ratio (%) was calculated by the following formula. Ear swelling control ratio (%)=(1−(Average value of ear thickening of compound administered group)/(Average value of ear thickening of vehicle administered group))×100

[2] = system: MRL/lpr mice; assay: Mouse systemic lupus erythematosus model; assay type: in vivo; conditions: at the doses used in the test
Procedure: MRL/lpr mice (Japan SLC, Inc.) were used to evaluate drug efficacy in this test, since the mice are widely used as mice models in which symptoms of autoimmune diseases similar to human systemic lupus erythematosus spontaneously express. A grouping was carried out on the basis of swellings of lymph nodes in submaxilla and axilla at 14 weeks old, and once-daily oral administration was continued for 42 days from the day of grouping, with vehicle or Example Compound 13 suspension. Urea nitrogen concentration and anti-dsDNA antibody concentration in peripheral blood at the final administration day were measured.

[3] = Influence on body weight of SD rat by repeated administration; assay type: in vivo
Procedure: The rats were grouped as follows, with four animals in each group, by a random classification method such that the average body weights of the respective groups would be almost uniform (Day 1).
The body weight change (BWC) was used as an index indicating the systemic toxicity caused by the compound administration. The BWC was calculated by the following formula. BWC (%)=([(Rat body weight on 14 days after the administration)−(Rat body weight at the time of grouping)]/(Rat body weight at the time of grouping))×100
The relative body weight change ratios in the each compound-administered groups were calculated by the following formula when the BWC in the vehicle-administered group was set as 1, and the results are indicated in Table 25. Relative body weight change ratio (%)=(BWC in the compound-administered group)/BWC in the vehicle-administered group)×100

[4] = system: RBL-2H3 cells; assay: Inhibitory activity against allergic reaction using RBL-2H3 cells (PGD2 production); assay type: cell-based, rat; conditions: anti-DNP IgE / DNP-BSA, read-out: PGD2 production inhibitory concentration (IC50, (nM))
Procedure: Rat basophilic leukemia cells, RBL-2H3, were suspended in MEM medium containing 10% FBS, and then the cells were inoculated in a culture plate, and cultured in a CO2 incubator (Sanyo Electric Biomedical Co., Ltd.) at 37° C. for 12 hours. After a culture supernatant was removed and the cells were washed, an anti-DNP-mouse IgE (Alpha Diagnostic Inc.) solution was added thereto, and the cells were cultured in the CO2 incubator for 1 hour. After a culture supernatant was removed and the cells were washed, an MEM medium was added thereto.
Further, a DNP-BSA (LSL, Inc.) solution was added thereto and the cells were cultured in the CO2 incubator for 15 minutes. A culture supernatant was collected and reacted, with PGD2-MOX EIA kit (Cayman Chemical Inc.) on the basis of the protocol attached thereto, and absorbance was measured by SUNRISE RAINBOW THERMO (TECAM Inc.).

[5] = biological target: T1, phosphorylated BTK protein in Ramos cells (Homo sapiens, UniProt Q06187); assay: Inhibitory activity against B-cell activation using Ramos cells (BTK phosphorylation); assay type: cell-based; conditions: anti-human IgM stimulation, pY223 Western blotting, read-out: Phosphorylated BTK inhibitory concentration (IC50, (nM))
T1 construct: endogenous in cells; host or cells: Ramos cells
Procedure: The human B-cell lymphoma-derived cell line, Ramos cells were suspended in RPMI1640 medium, and then the cells were inoculated in a culture plate at a concentration of 2.0×10^6 (cells/well). The cells were cultured in a CO2 incubator (Sanyo Electric Biomedical Co., Ltd.) at 37° C. for 12 hours. […] Then, 10 minutes of stimulation was provided with Goat F(ab′)2 anti-human IgM antibody-UNLB (southern biotech Corp.). Thereafter, the cells were harvested, and 50 μL of (a cell extract (NP-40; Invitrogen, Inc.) containing 1×protease inhibitor (Hoffmann-La Roche AG) and 1×phosphatase cocktail inhibitor (Sigma-Aldrich Co.)) was added to the cell pellets. The cell pellets were left to stand for 10 minutes on ice. The amount of protein in the collected cell extract was quantitatively analyzed by a DC protein assay (Bio-Rad Laboratories, Inc.), and 20 μg of proteins per lane was applied to a Criterion TGX™ (Bio-Rad Laboratories, Inc.). After electrophoresis was performed, Western blotting was performed with Trans-Blot™ Turbo™ (Bio-Rad Laboratories, Inc.). Thereafter, phosphorylated BTK protein and BTK protein were detected with LAS4000 (GE Healthcare, Inc.) with a BTK phosphor (pY223) antibody (EPITOMICS Inc.) and a BTK antibody (Abcam, plc.).

[6] = system: mouse collagen-induced arthritis model; assay: Mouse collagen-induced arthritis model (therapeutic effect), Test Example 8; assay type: in vivo; conditions: therapeutic administration, FIG. 3
Procedure: (§1) Seven-week-old male/DBA/1 mice (CHARLES RIVER LABORATORIES JAPAN, INC.) were intracutaneously injected in the dorsum with 100 μL/body of an equal amount-mixed solution (emulsion) of a 4 mg/mL bovine type 2 collagen solution (Collagen Research Center) and a complete freund's adjuvant (DIFCO Inc.) (Initial immunization). After 21 days therefrom, the mice were intracutaneously injected in the base of the tail with 100 μL/body of the equal amount-mixed solution (emulsion) of a 4 mg/mL of bovine type 2 collagen solution (Collagen Research Center) and a complete freund's adjuvant (DIFCO Inc.) to carry out an additional immunization. […] Symptoms of arthritis in day 0, day 4, day 7, day 11, and day 14 were scored with the naked eye (0: No change, 1: Swelling of a finger, 2: Swelling of two fingers or more, 3: Swelling of instep, 4: Swelling of all fingers besides swelling extending to wrist/ankle), and a total of four limbs was obtained as a point of an individual (maximum 16 points).

[7] = system: mouse collagen-induced arthritis model; assay: Mouse collagen-induced arthritis model (therapeutic effect), Test Example 7; assay type: in vivo; conditions: once-a-day oral for 15 days from sixth day after additional immunization, FIG. 2
Procedure: as §1

[8] = Rattus norvegicus, RBL-2H3, RBL-2H3 cells
[9] = repeated administration for two weeks

T1 sequence (Q06187 whole entry): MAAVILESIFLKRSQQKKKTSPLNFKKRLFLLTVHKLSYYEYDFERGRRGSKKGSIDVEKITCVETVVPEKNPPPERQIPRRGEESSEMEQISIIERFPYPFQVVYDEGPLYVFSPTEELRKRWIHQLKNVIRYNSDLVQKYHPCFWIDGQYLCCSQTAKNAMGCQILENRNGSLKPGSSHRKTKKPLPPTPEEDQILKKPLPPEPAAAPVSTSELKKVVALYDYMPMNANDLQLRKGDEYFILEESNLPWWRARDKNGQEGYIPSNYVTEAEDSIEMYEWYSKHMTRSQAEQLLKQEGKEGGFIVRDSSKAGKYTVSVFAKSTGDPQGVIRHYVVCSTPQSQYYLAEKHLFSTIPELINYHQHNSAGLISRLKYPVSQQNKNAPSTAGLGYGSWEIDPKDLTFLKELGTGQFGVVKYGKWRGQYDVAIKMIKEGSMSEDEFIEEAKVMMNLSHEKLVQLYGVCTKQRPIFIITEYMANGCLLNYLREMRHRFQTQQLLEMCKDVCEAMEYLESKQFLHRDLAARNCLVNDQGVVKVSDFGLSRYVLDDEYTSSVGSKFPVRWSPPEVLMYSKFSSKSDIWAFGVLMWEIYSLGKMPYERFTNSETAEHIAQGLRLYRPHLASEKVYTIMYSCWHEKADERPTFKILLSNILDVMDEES

IC50 [4, 8] | IC50 [5] | IC50 ([4]; RBL-2H3 cells) | Structure (SMILES) | Ear swelling control ratio (%) ([1]; 1 mg/kg oral) | Ear swelling control ratio (%) ([1]; 3 mg/kg oral) | remarkable decrease in body weight [2] | Relative body weight change ratio (%) ([3]; 750 mg/kg orally once a day, two weeks) | arthritis score [6] | arthritis score [7] | loose bowel [3, 9] | rat body weight increase compared with the vehicle-administered group [3, 9]
26 nM | 0.25 nM |  | C=CC(=O)N1CCC[C@@H](n2nc(C(=O)Nc3nc4ccccc4o3)c3c(N)ncnc32)C1 [Example 13, (R)-1-(1-acryloylpiperidin-3-yl)-4-amino-N-(benzo[d]oxazol-2-yl)-1H-pyrazolo[3,4-d]pyrimidine-3-carboxamide] | 54% | 79% | not recognized | 79.1% |  |  |  | 
~350 nM |  | 348 nM | C=CC(=O)N1CCC[C@@H](n2nc(-c3ccc(Oc4ccccc4)cc3)c3c(N)ncnc32)C1 [Reference compound 1, (R)-1-(3-(4-amino-3-(4-phenoxyphenyl)-1H-pyrazolo[3,4-d]pyrimidin-1-yl)piperidin-1-yl)prop-2-en-1-one, reference compound] |  |  |  |  | delayed the further increase of the increased arthritis score | delayed the further increase of the increased arthritis score | individuals suffering from loose bowel were recognized | very small
